# Laboratory results taken from patent publication US5554378A, “Pharmaceutical composition and its mucosal use” (Takeda Chemical Industries, Ltd., priority 1990, dated 1996).
# Experiments:
# [1] = Blood glucose after intranasal delivery of insulin to rats; type: in vivo, Male SD rats; conditions: for Glucose (% relative to glucose level before administration): intranasal, insulin 10 U/kg, mean ± SE, n = 5 (SE in parentheses)
# Experimental: (§1) Male SD rats (5 per group) weighing about 220 g were fasted for 16 hours. Under pentobarbital anaesthesia, the animals were prepared for intranasal therapy according to the procedure described in International Journal of Pharmaceutics 7, 317 (1981). Then, using a micropipet, 0.1 ml/kg of an insulin solution was directly administered into the nasal cavity and the blood was serially sampled from the tail vein for determination of blood glucose and insulin concentrations.
# (§2) As said insulin solution, a solution of 10U of porcine insulin (about 0.38 mg) and 0 mg-5 mg of LThB (corresponding to 5%) in 0.1 ml of isotonic buffer (pH 7.4) was used.
# (§3) Insulin dose: 10 U/Kg, SD rats, 7W, .male., 220 g
# *% relative to glucose level before administration (mean ± SE, n = 5)
# [2] = Plasma insulin level (EIA, GLAZYME Kit) after intranasal delivery of insulin to rats; type: in vivo, Male SD rats; conditions: for Insulin (plasma insulin level): insulin 10 U/kg
# Experimental: as §1, §2, §3
# Plasma insulin level: EIA (GLAZYME Kit, Wako)
Substance,"Blood glucose level on addition of LThB, compared with the control (without LThB) ([1]; intranasal with insulin, vs control without LThB)",Insulin (plasma insulin level) ([2]; 0.5 hr),Insulin (plasma insulin level) ([2]; 1.0 hr),Insulin (plasma insulin level) ([2]; 1.5 hr),Insulin (plasma insulin level) ([2]; 2.0 hr),Insulin (plasma insulin level) ([2]; 3.0 hr),Insulin (plasma insulin level) ([2]; 4.0 hr),Absorption of insulin from the nasal mucosa (blood insulin concentration) ([2]; with addition of LThB),Glucose (% relative to glucose level before administration) ([1]; 0.5 hr),Glucose (% relative to glucose level before administration) ([1]; 1.0 hr),Glucose (% relative to glucose level before administration) ([1]; 1.5 hr),Glucose (% relative to glucose level before administration) ([1]; 2.0 hr),Glucose (% relative to glucose level before administration) ([1]; 3.0 hr),Glucose (% relative to glucose level before administration) ([1]; 4.0 hr)
LThB,marked fall of blood glucose level,–,–,–,–,–,–,–,–,–,–,–,–,–
"insulin, No addition: 10U of porcine insulin (about 0.38 mg) in 0.1 ml of isotonic buffer (pH 7.4), without LThB",–,0.83 μU/ml,0.0 μU/ml,0.0 μU/ml,0.0 μU/ml,4.51 μU/ml,0.0 μU/ml,effectively absorbed from the nasal mucosa,135.9 (10.5) %,141.7 (8.6) %,133.4 (11.2) %,127.3 (9.1) %,132.9 (11.4) %,136.3 (13.5) %
